Values of other authors in PubChem BioAssay AID1259409 (Chemical Carcinogenesis Research Information System (CCRIS), 2018).
“And” between values parts separate entries of the source, which are not always exact repeats. Equal values may be shown once.

Tested on: rodent chemically induced tumor inhibition, incidence and multiplicity
Assay: CCRIS tumor inhibitor studies
Conditions: Promoter: NONE USED

## CCN(CC)C(=S)SSC(=S)N(CC)CC
Carcinogen: 1,2-DIMETHYLHYDRAZINE, 540-73-8, Dose [Inhibitor]: 0, 500 MG/KG BW IN CORN OIL 5 D/WK FOR 20 WK BEGINNING 2 HR POST FIRST CARCINOGEN DOSE (STUDY DURATION: 18 MO), Route [Inhibitor]: GAVAGE, Species: RAT, Strain/Sex: WISTAR/MALE, Target Tissue: Type of Lesion: INTESTINE: TUMOR, Dose [Carcinogen]: 20 MG/KG BW 1/WK FOR 20 WK
  tumour outcome (control, treated, inhibition, significance): 100%, 58%, 42%, not calculated
Carcinogen: 1,2-DIMETHYLHYDRAZINE, 540-73-8, Dose [Inhibitor]: 0, 500 MG/KG BW IN CORN OIL 5 D/WK FOR 20 WK BEGINNING 2 HR POST FIRST CARCINOGEN DOSE (STUDY DURATION: 18 MO), Route [Inhibitor]: GAVAGE, Species: RAT, Strain/Sex: WISTAR/MALE, Target Tissue: Type of Lesion: ZYMBAL GLAND: TUMOR, Dose [Carcinogen]: 20 MG/KG BW 1/WK FOR 20 WK
  tumour outcome (control, treated, inhibition, significance): 52%, 4%, 92%, not calculated
Carcinogen: 1,2-DIMETHYLHYDRAZINE, 540-73-8, Dose [Inhibitor]: 0, 500 MG/KG BW IN CORN OIL 5 D/WK FOR 20 WK BEGINNING 15 D PRIOR TO CARCINOGEN TREATMENT (STUDY DURATION: 18 MO), Route [Inhibitor]: GAVAGE, Species: RAT, Strain/Sex: WISTAR/MALE, Target Tissue: Type of Lesion: INTESTINE: TUMOR, Dose [Carcinogen]: 20 MG/KG BW 1/WK FOR 20 WK
  tumour outcome (control, treated, inhibition, significance): 100%, 0%, 100%, not calculated
Carcinogen: 1,2-DIMETHYLHYDRAZINE, 540-73-8, Dose [Inhibitor]: 0, 500 MG/KG BW IN CORN OIL 5 D/WK FOR 20 WK BEGINNING 15 D PRIOR TO CARCINOGEN TREATMENT (STUDY DURATION: 18 MO), Route [Inhibitor]: GAVAGE, Species: RAT, Strain/Sex: WISTAR/MALE, Target Tissue: Type of Lesion: ZYMBAL GLAND: TUMOR, Dose [Carcinogen]: 20 MG/KG BW 1/WK FOR 20 WK
  tumour outcome (control, treated, inhibition, significance): 68%, 0%, 100%, not calculated
Carcinogen: 1,2-DIMETHYLHYDRAZINE, 540-73-8, Dose [Inhibitor]: 5 MG/G IN DIET FOR 17 WK BEGINNING 8 D PRIOR TO CARCINOGEN (STUDY DURATION: 36 WK), Route [Inhibitor]: ORAL, Species: MOUSE, Strain/Sex: C-F1/FEMALE, Target Tissue: Type of Lesion: LARGE INTESTINE: TUMOR, Dose [Carcinogen]: 0.7 MG IN 0.2 ML EDTA SOLUTION 1/WK FOR 16 WK
  tumour outcome (control, treated, inhibition, significance): 14/14 (100%), 0/20 (0%), 100%, not calculated
Carcinogen: 7,12-DIMETHYLBENZ[A]ANTHRACENE, 57-97-6, Dose [Inhibitor]: 0.03 NMOL/G DIET DAILY FOR 17 WK STARTING 1 WK PRIOR TO CARCINOGEN TREATMENT AND CONTINUING THROUGH THE END OF THE STUDY, Route [Inhibitor]: ORAL, Species: RAT, Strain/Sex: SPRAGUE-DAWLEY/FEMALE, Target Tissue: Type of Lesion: MAMMARY GLAND: TUMOR, Dose [Carcinogen]: 12 MG IN 1 ML OLIVE OIL ONCE
  tumour outcome (control, treated, inhibition, significance): 61%, 22%, 64%, p<0.05 and 79%, 8%, 90%, p<0.001
Carcinogen: 7,12-DIMETHYLBENZ[A]ANTHRACENE, 57-97-6, Dose [Inhibitor]: 100 MG IN 1 ML CARBOWAX 400 SOLUTION ONCE 24 HR BEFORE CARCINOGEN TREATMENT FOLLOWED BY 16 WK OBSERVATION PERIOD (STUDY, Route [Inhibitor]: GAVAGE, Species: RAT, Strain/Sex: SPRAGUE-DAWLEY/FEMALE, Target Tissue: Type of Lesion: MAMMARY GLAND: TUMOR, Dose [Carcinogen]: 12 MG IN 1 ML OLIVE OIL ONCE
  tumour outcome (control, treated, inhibition, significance): 59%, 11%, 81%, p<0.01
Carcinogen: BENZO[A]PYENE, 50-32-8, Dose [Inhibitor]: 0.03 MMOL/G DIET DAILY FOR 6 WK CONCURRENT WITH CARCINOGEN TREATMENT FOLLOWED BY 14 WK ON STANDARD DIET (STUDY DURATION:, Route [Inhibitor]: ORAL, Species: MOUSE, Strain/Sex: ICR/FEMALE, Target Tissue: Type of Lesion: FORESTOMACH: NEOPLASM, Dose [Carcinogen]: 0.3 MG/G IN DIET DAILY FOR 6 WK
  tumour outcome (control, treated, inhibition, significance): 40%, 0%, 100%, not calculated
Carcinogen: BENZO[A]PYENE, 50-32-8, Dose [Inhibitor]: 0.03 MMOL/G DIET DAILY FOR 25 D STARTING 7 D PRIOR TO FIRST CARCINOGEN DOSE AND THEN PLACED ON STANDARD DIET THROUGH THE, Route [Inhibitor]: ORAL, Species: MOUSE, Strain/Sex: STRAIN-A/FEMALE, Target Tissue: Type of Lesion: LUNG: ADENOMA, Dose [Carcinogen]: 3 MG IN 0.5 ML SESAME OIL ADMINISTERED 7 AND 21 D AFTER START OF AGENT
  tumour outcome (control, treated, inhibition, significance): 12/12 (100%), 12/12 (100%), 0%, not significant
Carcinogen: BRACKEN FERN, Dose [Inhibitor]: 5 MG/G DIET, DAILY FOR 12 MO SIMULTANEOUS WITH CARCINOGEN (STUDY DURATION: 12 MO), Route [Inhibitor]: ORAL, Species: RAT, Strain/Sex: ALBINO/?, Target Tissue: Type of Lesion: INTESTINE: TUMOR, Dose [Carcinogen]: 0.33 G IN DIET DAILY FOR 12 MO
  tumour outcome (control, treated, inhibition, significance): 30/30 (100%), 12/16 (75%), 25%, p<0.01
Carcinogen: BRACKEN FERN, Dose [Inhibitor]: 5 MG/G DIET, DAILY FOR 12 MO SIMULTANEOUS WITH CARCINOGEN (STUDY DURATION: 12 MO), Route [Inhibitor]: ORAL, Species: RAT, Strain/Sex: ALBINO/?, Target Tissue: Type of Lesion: URINARY BLADDER: TUMOR, Dose [Carcinogen]: 0.33 G IN DIET, DAILY FOR 12 MO
  tumour outcome (control, treated, inhibition, significance): 22/30 (73%), 10/16 (62%), 15%, not significant
Carcinogen: TRANS-5-AMINO-3-[2-(5-NITRO-2-FURYL)VINYL]-1,2,4-OXADIAZOLE;SQL8506, 28754-68-9, Carcinogen: TRANS-5-AMINO-3-[2-(5-NITRO-2-FURYL)VINYL]-1,2,4-OXADIAZOLE;SQL8506, 28754-68-9, Dose [Inhibitor]: 1% IN DIET DAILY FOR 11 D BEGINNING 3 D BEFORE, DURING AND 3 D AFTER EACH OF 3 CARCINOGEN TREATMENTS (STUDY DURATION: LI, Route [Inhibitor]: ORAL, Species: MOUSE, Strain/Sex: CD-1/FEMALE, Target Tissue: Type of Lesion: HEMATOPOIETIC SYSTEM: MYELOID LEUKEMIA, Dose [Carcinogen]: 1 G/KG 2/D FOR 5 D EVERY 4 WK FOR 3 COURSES OF TREATMENT
  tumour outcome (control, treated, inhibition, significance): 7/137 (5%), 0/34 (0%), 100%, not calculated
Carcinogen: TRANS-5-AMINO-3-[2-(5-NITRO-2-FURYL)VINYL]-1,2,4-OXADIAZOLE;SQL8506, 28754-68-9, Carcinogen: TRANS-5-AMINO-3-[2-(5-NITRO-2-FURYL)VINYL]-1,2,4-OXADIAZOLE;SQL8506, 28754-68-9, Dose [Inhibitor]: 1% IN DIET DAILY FOR 11 D BEGINNING 3 D BEFORE, DURING AND 3 D AFTER EACH OF 3 CARCINOGEN TREATMENTS (STUDY DURATION: LI, Route [Inhibitor]: ORAL, Species: MOUSE, Strain/Sex: CD-1/FEMALE, Target Tissue: Type of Lesion: LYMPHOID TISSUE: NONTHYMIC LYMPHOMA, Dose [Carcinogen]: 1 G/KG 2/D FOR 5 D EVERY 4 WK FOR 3 COURSES OF TREATMENT
  tumour outcome (control, treated, inhibition, significance): 8/137 (6%), 0/34 (0%), 100%, not calculated
Carcinogen: TRANS-5-AMINO-3-[2-(5-NITRO-2-FURYL)VINYL]-1,2,4-OXADIAZOLE;SQL8506, 28754-68-9, Carcinogen: TRANS-5-AMINO-3-[2-(5-NITRO-2-FURYL)VINYL]-1,2,4-OXADIAZOLE;SQL8506, 28754-68-9, Dose [Inhibitor]: 1% IN DIET DAILY FOR 11 D BEGINNING 3 D BEFORE, DURING AND 3 D AFTER TREATMENT EACH OF 3 CARCINOGEN TREATMENTS (STUDY DU, Route [Inhibitor]: ORAL, Species: MOUSE, Strain/Sex: CD-1/FEMALE, Target Tissue: Type of Lesion: STOMACH: SQUAMOUS CARCINOMA, Dose [Carcinogen]: 1 G/KG 2/D FOR 5 D EVERY 4 WK FOR 3 COURSES OF TREATMENT
  tumour outcome (control, treated, inhibition, significance): 60/137 (44%), 12/34 (35%), 20%, not calculated
Carcinogen: URETHANE, 51-79-6, Dose [Inhibitor]: 0, 500 MG/KG IN CORN OIL AT 24 HR AND 1 HR PRIOR TO CARCINOGEN DOSE (STUDY DURATION: 4 MO), Route [Inhibitor]: GAVAGE, Species: MOUSE, Strain/Sex: BALB/MALE, FEMALE, Target Tissue: Type of Lesion: LUNG: TUMOR, Dose [Carcinogen]: 1 G/KG IN 0.9% SALINE ONCE
  tumour outcome (control, treated, inhibition, significance): 100%, 63%, 37%, not significant
Carcinogen: URETHANE, 51-79-6, Dose [Inhibitor]: 0, 500 MG/KG IN CORN OIL FOR 4 D BEGINNING 4 D POST CARCINOGEN DOSE (STUDY DURATION: 4 MO), Route [Inhibitor]: GAVAGE, Species: MOUSE, Strain/Sex: BALB/MALE, FEMALE, Target Tissue: Type of Lesion: LUNG: TUMOR, Dose [Carcinogen]: 1 G/KG IN 0.9% SALINE ONCE
  tumour outcome (control, treated, inhibition, significance): 100%, 94%, 6%, not significant
